Earlier results in patent publication US20230301959A1, “COMBINATIONS OF CARNOSINE AND ZINC FOR THE TREATMENT AND PREVENTION OF VIRAL INFECTIONS” (priority 2020, published 2023).

Tests used:
Dengue and Zika virus = conditions: liver cell culture
H9N2 influenza virus = conditions: mouse, in vivo, po, 10 mg/kg
[1] = dietary administration
[2] = target: T1, viral RNA-dependent RNA polymerase (RdRp) from rhinoviruses (Human rhinovirus 16, UniProt Q82122)
T1 construct: viral RNA-dependent RNA polymerase (RdRp) from rhinoviruses and hepatitis C
T1 sequence (Q82122 1694-2153 limits assumed): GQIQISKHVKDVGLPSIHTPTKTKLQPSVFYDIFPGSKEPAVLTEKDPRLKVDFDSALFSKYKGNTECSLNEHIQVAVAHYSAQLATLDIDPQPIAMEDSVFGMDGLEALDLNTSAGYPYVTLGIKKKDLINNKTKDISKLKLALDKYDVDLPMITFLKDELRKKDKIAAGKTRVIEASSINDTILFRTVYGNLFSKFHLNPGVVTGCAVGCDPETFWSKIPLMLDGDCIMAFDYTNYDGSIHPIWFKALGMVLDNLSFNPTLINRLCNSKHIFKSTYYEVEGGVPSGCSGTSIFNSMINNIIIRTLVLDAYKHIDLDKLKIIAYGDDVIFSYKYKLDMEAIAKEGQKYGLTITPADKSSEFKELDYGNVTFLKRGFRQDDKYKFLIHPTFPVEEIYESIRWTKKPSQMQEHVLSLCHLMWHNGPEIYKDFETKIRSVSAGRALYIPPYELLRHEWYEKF

[3] = system: viral RNA-dependent RNA polymerase (RdRp) from hepatitis C
[4] = target: coronavirus RNA polymerase (Severe acute respiratory syndrome coronavirus, UniProt P0C6X7)
rhinovirus 3C protease = rhinovirus 3C protease (Human rhinovirus 14, UniProt P03303)
Chain of rhinovirus 3C protease (P03303 1538-1719 limits assumed): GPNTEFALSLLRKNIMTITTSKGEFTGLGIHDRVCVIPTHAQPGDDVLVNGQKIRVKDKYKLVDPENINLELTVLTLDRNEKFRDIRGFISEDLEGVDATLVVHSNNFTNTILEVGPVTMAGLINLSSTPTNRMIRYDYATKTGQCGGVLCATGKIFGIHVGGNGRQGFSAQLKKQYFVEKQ

coxsackievirus B3 = conditions: infected cells
[5] = target: T2, arterivirus RNA polymerase (Equine arteritis virus, UniProt P19811); conditions: in vitro
T2 sequence (P19811 1678-2370 limits assumed): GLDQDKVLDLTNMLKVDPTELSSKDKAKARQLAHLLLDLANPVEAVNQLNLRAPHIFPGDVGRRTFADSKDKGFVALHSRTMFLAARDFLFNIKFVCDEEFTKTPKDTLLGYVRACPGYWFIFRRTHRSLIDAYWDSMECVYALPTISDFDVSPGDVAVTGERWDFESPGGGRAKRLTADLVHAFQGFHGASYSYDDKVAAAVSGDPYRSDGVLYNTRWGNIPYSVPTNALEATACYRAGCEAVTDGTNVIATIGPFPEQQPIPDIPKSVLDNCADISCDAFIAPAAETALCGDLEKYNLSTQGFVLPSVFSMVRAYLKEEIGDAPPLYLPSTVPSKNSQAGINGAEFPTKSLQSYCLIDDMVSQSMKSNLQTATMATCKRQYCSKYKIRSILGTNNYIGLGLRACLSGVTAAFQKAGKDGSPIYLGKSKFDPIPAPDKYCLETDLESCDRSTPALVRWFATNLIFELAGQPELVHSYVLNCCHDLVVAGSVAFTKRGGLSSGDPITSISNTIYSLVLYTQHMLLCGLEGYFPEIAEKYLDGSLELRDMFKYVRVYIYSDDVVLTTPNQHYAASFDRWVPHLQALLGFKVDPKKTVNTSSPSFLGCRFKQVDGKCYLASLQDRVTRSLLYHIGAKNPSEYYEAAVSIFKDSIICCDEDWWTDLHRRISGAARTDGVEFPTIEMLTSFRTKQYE

poliovirus 3C protease = poliovirus 3C protease (Poliovirus type 1, UniProt P03300)
Chain of poliovirus 3C protease (P03300 1566-1748 limits assumed): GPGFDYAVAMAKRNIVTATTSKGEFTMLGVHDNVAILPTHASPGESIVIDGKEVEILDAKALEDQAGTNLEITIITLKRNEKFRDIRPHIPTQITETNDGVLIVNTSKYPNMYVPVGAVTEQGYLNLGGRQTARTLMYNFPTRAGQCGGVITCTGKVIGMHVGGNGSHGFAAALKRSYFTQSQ

human rhinovirus = conditions: infected cells

| SMILES | cell viability post infection (Dengue and Zika virus) | viral genome replication (Dengue and Zika virus) | safety of regular administration (2-4 months, in combination with forskolin, homotaurine, vitamins B1, B2, B6, folic acid, magnesium, different age groups) | tolerability (2 weeks, obese patients with Type-II diabetes and Gulf-War Veterans, without any reported adverse reactions) | levels of TNF-a, IL-1b, TLR-4 mRNA and protein (H9N2 influenza virus) | lung wet mass ratio (H9N2 influenza virus) | myeloperoxidase activity (H9N2 influenza virus) | overall mortality (H9N2 influenza virus) [%] | pathological lung lesions (H9N2 influenza virus) | early atherosclerotic lesion formation [1] | renal disease [1] | activity of RdRp [2] | activity of RdRp [3] | RNA polymerase activity [4] | protease activity (rhinovirus 3C protease) | polyprotein processing (coxsackievirus B3) | RNA polymerase activity [5] | protease activity (poliovirus 3C protease) | polyprotein processing (human rhinovirus) |
| --- | --- | --- | --- | --- | --- | --- | --- | --- | --- | --- | --- | --- | --- | --- | --- | --- | --- | --- | --- |
| NCCC(=O)N[C@@H](Cc1cnc[nH]1)C(=O)O [carnosine, β-alanyl-L-histidine] | ameliorate | significantly inhibit | safe | well tolerated | significantly reduced | decreased | reduced | 43 | improvement | prevent | attenuating | – | – | – | – | – | – | – | – |
| [Zn+2] [zinc ion] | – | – | – | – | – | – | – | – | – | – | – | inhibitory effect | inhibitory effect | inhibits | inhibited | inhibited | inhibits | inhibited | inhibited |
